The assay deals with MAPK14 (human) (UniProt Q16539). Kind of assay: Enzyme Assay.

“And” between values parts separate entries of the source, which are not always exact repeats. Equal values may be shown once.

The Ki is a measure of affinity in units of concentration, obtained from inhibition or displacement. Broadly, the Kd is the equilibrium constant for the complex coming apart.

Chain of MAPK14 (human) (Q16539 whole entry, looked up): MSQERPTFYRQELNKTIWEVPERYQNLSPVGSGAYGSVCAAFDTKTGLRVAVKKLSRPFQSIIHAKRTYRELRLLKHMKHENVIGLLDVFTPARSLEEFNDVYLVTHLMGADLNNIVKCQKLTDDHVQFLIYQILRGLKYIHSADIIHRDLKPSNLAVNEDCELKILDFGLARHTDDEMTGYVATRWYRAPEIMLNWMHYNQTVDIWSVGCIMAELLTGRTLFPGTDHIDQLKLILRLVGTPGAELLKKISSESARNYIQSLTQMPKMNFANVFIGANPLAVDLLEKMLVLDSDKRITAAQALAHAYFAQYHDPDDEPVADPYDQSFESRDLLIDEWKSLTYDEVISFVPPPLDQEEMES

On to `CC(C)(C)c1cc(NC(=O)Nc2cccc3ccccc23)n(-c2cccc(C(=O)N(CCCN)C3CCCCC3)c2)n1`, for which the Ki was determined as 0.089 µM.

For the compound `CC(C)[C@H](CO)CNC(=O)c1cccc(-n2nc(C(C)(C)C)cc2NC(=O)Nc2cccc3ccccc23)c1`, the Ki turned out to be 0.471 µM.

`CC(C)(C)c1cc(NC(=O)Nc2cccc3ccccc23)n(-c2cccc(C(=O)NCc3ccncn3)c2)n1` yielded a Ki of 0.327 µM.

With `CC(C)CN(CCCN)C(=O)c1cccc(-n2nc(C(C)(C)C)cc2NC(=O)Nc2cccc3ccccc23)c1`, the Ki was determined as 0.312 µM.

`CC(C)(C)c1cc(NC(=O)Nc2cccc3ccccc23)n(-c2cccc(C(=O)NCCCN3CCCC3)c2)n1` returned a Ki of 0.301 µM.

Regarding `COCCCN1CCC(NC(=O)c2cccc(-n3nc(C(C)(C)C)cc3NC(=O)Nc3cccc4ccccc34)c2)CC1`, the Ki was found to be 0.336 µM.

Take `CCN(CCN(C)C)C(=O)c1cccc(-n2nc(C(C)(C)C)cc2NC(=O)Nc2cccc3ccccc23)c1`: the Ki worked out at 0.735 µM.

Compound `CC(C)(C)c1cc(NC(=O)Nc2cccc3ccccc23)n(-c2cccc(C(=O)NCCCN3CCOCC3)c2)n1` came in with a Ki of 0.291 µM.

`CC(C)(C)c1cc(NC(=O)Nc2cccc3ccccc23)n(-c2cccc(C(=O)N[C@@H]3CS(=O)(=O)C[C@H]3O)c2)n1` came in with a Ki of 0.112 µM.

On to `CC(C)(C)c1cc(NC(=O)Nc2cccc3ccccc23)n(-c2cccc(C(=O)NCC#N)c2)n1`, for which the dissociation constant (Kd) amounted to 0.055 µM; the inhibitory constant (Ki) was 0.25 µM and 0.252 µM.

As for `CC(C)(C)c1cc(NC(=O)Nc2cccc3ccccc23)n(-c2cccc(C(=O)NC3CCN(CCN4CCOCC4)CC3)c2)n1`, the Ki worked out at 0.885 µM.

Compound `CC(C)CC(CNC(=O)c1cccc(-n2nc(C(C)(C)C)cc2NC(=O)Nc2cccc3ccccc23)c1)C(N)=O` (stereo not given) returned an inhibition constant Ki of 0.786 µM.

On to `CN1CCN(CCNC(=O)c2cccc(-n3nc(C(C)(C)C)cc3NC(=O)Nc3cccc4ccccc34)c2)CC1`, for which the Ki was determined as 0.14 µM.

For the compound `CC(C)(C)c1cc(NC(=O)Nc2cccc3ccccc23)n(-c2cccc(C(=O)NCCNc3ccccc3)c2)n1`, the Ki is 0.433 µM.

For the origin of these results see the Kinase Knowledgebase extract (Sharma et al. 2016).
